Data taken from paper PMC7988154, “Mechanism of substrate transport and inhibition of the human LAT1-4F2hc amino acid transporter” (Cell Discovery, 2021).

target: T1, LAT1 (SLC7A5) (Homo sapiens, UniProt Q01650); assay: cryo-EM structure of the LAT1-4F2hc complex; IC50 from [3H]-L-leucine uptake in HT-29 cells; type: cell-based
T1 construct: with 4F2hc (SLC3A2)
T1 sequence (Q01650 whole entry): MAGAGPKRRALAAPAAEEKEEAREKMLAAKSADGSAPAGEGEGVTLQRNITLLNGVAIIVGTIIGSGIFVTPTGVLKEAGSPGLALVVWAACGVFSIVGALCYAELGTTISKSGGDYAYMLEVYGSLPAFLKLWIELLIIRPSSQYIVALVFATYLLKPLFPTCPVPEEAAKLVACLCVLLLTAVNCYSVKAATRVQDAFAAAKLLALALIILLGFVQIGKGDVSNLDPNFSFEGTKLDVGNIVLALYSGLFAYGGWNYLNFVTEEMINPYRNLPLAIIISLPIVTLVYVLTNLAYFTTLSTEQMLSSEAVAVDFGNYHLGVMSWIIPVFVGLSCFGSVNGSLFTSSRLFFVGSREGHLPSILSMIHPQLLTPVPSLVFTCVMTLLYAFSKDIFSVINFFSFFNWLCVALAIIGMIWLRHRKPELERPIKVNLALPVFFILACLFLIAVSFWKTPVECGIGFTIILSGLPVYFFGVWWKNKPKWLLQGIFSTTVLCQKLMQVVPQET
T1 sequence (P08195 103-630 partner): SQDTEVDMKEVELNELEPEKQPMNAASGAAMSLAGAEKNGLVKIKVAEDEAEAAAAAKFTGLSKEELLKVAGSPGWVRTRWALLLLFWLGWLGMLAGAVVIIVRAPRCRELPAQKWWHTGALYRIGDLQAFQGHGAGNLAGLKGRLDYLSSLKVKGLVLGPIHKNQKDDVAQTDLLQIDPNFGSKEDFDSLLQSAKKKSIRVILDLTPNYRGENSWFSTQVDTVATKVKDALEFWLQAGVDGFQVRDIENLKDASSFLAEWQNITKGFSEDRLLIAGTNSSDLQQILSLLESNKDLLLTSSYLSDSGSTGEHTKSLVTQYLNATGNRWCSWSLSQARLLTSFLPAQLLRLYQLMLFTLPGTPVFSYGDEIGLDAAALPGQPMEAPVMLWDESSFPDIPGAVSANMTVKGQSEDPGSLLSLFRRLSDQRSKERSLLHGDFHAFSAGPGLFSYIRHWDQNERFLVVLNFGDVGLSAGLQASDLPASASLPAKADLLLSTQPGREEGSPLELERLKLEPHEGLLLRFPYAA

SMILES | IC50 [µM]
NC1(C(=O)O)CCc2ccc(OCc3cccc4ccccc34)cc2C1 (stereo not drawn) [JX-075] | 0.165
NC1(C(=O)O)CCc2ccc(OCc3ccccc3-c3nc4ccccc4o3)cc2C1 (stereo not drawn) [JX-119] | 0.234
NC1(C(=O)O)CCc2ccc(OCc3ccccc3-c3ccccc3)cc2C1 (stereo not drawn) [JX-078] | 0.121
